Values after ≈ are worked out from the molar mass of the structure shown. Like-named read-outs stand apart in the source and are kept apart here.
How the values were obtained:
[1] = system: Bacillus cereus ATCC 11778; test: Antibacterial microdilution MIC, B. cereus; type: cell-based
Protocol: (§1) Four bacterial cultures Bacillus cereus ATCC 11778, Bacillus subtilis ATCC 6633, Staphylococcus aureus ATCC 25923, and Methicillin resistant Staphylococcus aureus (MRSA) were employed as the test organisms. Minimum inhibitory concentration (MIC) values were determined using the dilution method, as described in the M07-A9,[45] as described in our previous paper.[4,46]

[2] = system: Bacillus subtilis ATCC 6633; test: Antibacterial microdilution MIC, B. subtilis; type: cell-based
Protocol: as §1

[3] = system: HepG2 (human hepatocellular carcinoma) cells; test: In vitro cytotoxicity, HepG2; type: cell-based
Protocol: (§2) All types of cancer and non-tumorigenic cells were purchased from ATCC. Cytotoxicity assays against human cervical carcinoma (HelaS3; ATCC CCL2-2), human hepatocellular carcinoma (HepG2; ATCC HB-8065), human lung carcinoma (A549; ATCC CCL-185), and African green monkey kidney (Vero; ATCC CCL-81) cell lines were performed by […].[44] Cells proliferation was performed using the MTT colorimetric assay,[44] as in our previous publication.[4]

[4] = system: A549 (human lung carcinoma) cells; test: In vitro cytotoxicity, A549; type: cell-based
Protocol: as §2

S. aureus ATCC 25923 [5] = test: Antibacterial microdilution MIC, S. aureus; type: cell-based; details: Staphylococcus aureus
Protocol: as §1

[6] = In vitro cytotoxicity, Vero normal cells; type: cell-based, African green monkey; details: African green monkey, Vero cells (kidney, non-tumorigenic)
Protocol: as §2

[7] = system: HelaS3 (human cervical carcinoma) cells; test: In vitro cytotoxicity, HelaS3; type: cell-based; details: HeLa S3
Protocol: as §2

[8] = system: Methicillin resistant Staphylococcus aureus (MRSA); test: Antibacterial microdilution MIC, MRSA; type: cell-based; details: read-out: MIC MRSA
Protocol: as §1

[9] = system: HelaS3, A549, and HepG2 cancer cell lines; test: Cytotoxicity stated over the three cancer cell lines; type: cell-based, human; details: HelaS3, A549, HepG2 taken together; for IC50: Homo sapiens, read-out: Cytotoxicity against three cancer cell lines (IC50 values, range over lines)
Protocol: as §2

[10] = system: MRSA, S. aureus, B. subtilis, and B. cereus; test: Antibacterial activity stated over all four Gram-positive strains; type: cell-based; details: for MIC / MIC against all bacterial strains tested: MRSA, S. aureus, B. subtilis, B. cereus taken together; for MIC: read-out: MIC against all bacterial strains tested; for fold improvement in antibacterial potency (MIC) compared to parent 1: all bacterial strains
Protocol: as §1

[11] = system: Vero (African green monkey kidney) cells; test: In vitro cytotoxicity, Vero normal cells; type: cell-based
Protocol: as §2

[12] = system: HelaS3 (human cervical carcinoma) cells; design: method as in PMID 35422182; details: parent xanthones, previous report, read-out: Cytotoxicity (IC50, μM) HelaS3; cited from earlier work
[13] = system: Bacillus subtilis ATCC 6633; design: method as in PMID 35422182; details: parent xanthones, previous report; cited from earlier work
[14] = system: Methicillin resistant Staphylococcus aureus (MRSA); design: method as in PMID 35422182; details: parent xanthones, previous report; cited from earlier work
S. aureus ATCC 25923 [15] = system: S. aureus ATCC 25923; design: method as in PMID 35422182; details: parent xanthones, previous report; cited from earlier work
[16] = system: Vero (African green monkey kidney) cells; design: method as in PMID 35422182; details: parent xanthones, previous report, read-out: Cytotoxicity (IC50, μM) Vero; cited from earlier work
[17] = system: Bacillus cereus ATCC 11778; design: method as in PMID 35422182; details: parent xanthones, previous report; cited from earlier work
[18] = system: A549 (human lung carcinoma) cells; design: method as in PMID 35422182; details: parent xanthones, previous report, read-out: Cytotoxicity (IC50, μM) A549; cited from earlier work
[19] = system: HepG2 (human hepatocellular carcinoma) cells; design: method as in PMID 35422182; details: parent xanthones, previous report, read-out: Cytotoxicity (IC50, μM) HepG2; cited from earlier work
[20] = ATCC11778, microdilution method, ATCC 11778, read-out: MIC B. cereus
[21] = ATCC6633, microdilution method, ATCC 6633, read-out: MIC B. subtilis
[22] = ATCC25923, microdilution method, ATCC 25923, read-out: MIC S. aureus

Row | SMILES | MIC [1, 20] [µg/mL] | MIC [2, 21] [µg/mL] | IC50 [3] [µM] | IC50 [4] [µM] | MIC (S. aureus ATCC 25923 [5]; [22]) [µg/mL] | IC50 [6] [µM] | IC50 [7] [µM] | MIC ([8]; microdilution method) [µg/mL] | also measured
1 | C=CC(C)(C)c1c2c(c(OC(=O)CCCC)c3c(=O)c4ccc(OC(=O)CCCC)c(OC(=O)CCCC)c4oc13)C=CC(C)(C)O2 [Compound 2b, 1,5,6-Tripentanoyloxymacluraxanthone] | > 128 | > 128 | > 100 | 41.8 ± 1.91 | > 128 | 36 ± 2.32 | 55.3 ± 2.18 | > 128 | 
2 | C=CC(C)(C)c1c2c(c(O)c3c(=O)c4ccc(O)c(OCC)c4oc13)C=CC(C)(C)O2 [Compound 2g, 5-Ethoxymacluraxanthone] | > 128 | > 128 | > 100 | > 100 | > 128 | > 100 | > 100 | > 128 | Cytotoxicity against three cancer cell lines (IC50 values, range over lines) [9]: no cytotoxicity
3 | CC1Oc2c(c(O)c3c(=O)c4ccc(O)c(O)c4oc3c2Br)C1(C)C (centres unmarked) [Compound 1f, 4-Bromotoxyloxanthone C] | 4 (≈ 9.82 µM) | 4 (≈ 9.82 µM) | 19.4 ± 1.52 | 7.52 ± 0.36 | 4 (≈ 9.82 µM) | 9.52 ± 1.02 | 17.4 ± 1.75 | 4 (≈ 9.82 µM) | MIC [10]: 4 µg/mL (≈ 9.82 µM); fold improvement in antibacterial potency (MIC) compared to parent 1 [10]: 32 fold; Cytotoxicity (IC50, μM) Vero [11]: cytotoxic toward normal cells
4 | CC1Oc2cc3oc4c(OS(C)(=O)=O)c(OS(C)(=O)=O)ccc4c(=O)c3c(O)c2C1(C)C (centres unmarked) [Compound 1c, 5,6-Dimesyloxytoxyloxanthone C] | > 128 | > 128 | > 100 | > 100 | > 128 | > 100 | 65.3 ± 3.92 | > 128 | MIC against all bacterial strains tested [10]: no antibacterial activity
5 | COc1ccc2c(=O)c3c(O)c4c(cc3oc2c1OC)OC(C)C4(C)C (centres unmarked) [Compound 1d, 5,6-Dimethoxytoxyloxanthone C] | > 128 | > 128 | > 100 | > 100 | > 128 | > 100 | > 100 | > 128 | MIC against all bacterial strains tested [10]: no antibacterial activity; Cytotoxicity against three cancer cell lines (IC50 values, range over lines) [9]: no cytotoxicity
6 | C=CC(C)(C)c1c2c(c(O)c3c(=O)c4ccc(O)c(OC)c4oc13)C=CC(C)(C)O2 [Compound 2e, 5-Methoxymacluraxanthone] | > 128 | > 128 | > 100 | 90.5 ± 6.23 | > 128 | > 100 | > 100 | > 128 | 
7 | C=CC(C)(C)c1c2c(c(O)c3c(=O)c4ccc(OC)c(OC)c4oc13)C=CC(C)(C)O2 [Compound 2d, 5,6-Dimethoxymacluraxanthone] | > 128 | > 128 | > 100 | > 100 | > 128 | > 100 | > 100 | > 128 | Cytotoxicity against three cancer cell lines (IC50 values, range over lines) [9]: no cytotoxicity
8 | COc1cccc2c1C(=O)c1c(O)c3c(c(O)c1C2=O)C[C@@](O)(C(=O)CO)C[C@@H]3O[C@H]1C[C@H](N)[C@H](O)[C@H](C)O1 [Doxorubicin, reference compound] |  |  | 0.37 ± 0.02 | 0.48 ± 0.036 |  | 1.95 ± 0.13 | 0.29 ± 0.02 |  | 
9 | CCCCC(=O)Oc1ccc2c(=O)c3c(OC(=O)CCCC)c4c(cc3oc2c1OC(=O)CCCC)OC(C)C4(C)C (centres unmarked) [Compound 1b, 1,5,6-Tripentanoyloxytoxyloxanthone C] | 16 (≈ 27.6 µM) | 8 (≈ 13.8 µM) | 17.2 ± 4.5 | 5.77 ± 2.14 | 8 (≈ 13.8 µM) | 5.59 ± 0.36 | 20.5 ± 4.92 | 8 (≈ 13.8 µM) | MIC [10]: 8 to 16 µg/mL (≈ 13.8 to 27.6 µM); Cytotoxicity (IC50, μM) Vero [11]: strong cytotoxicity
10 | C=CC(C)(C)c1c2c(c(O)c3c(=O)c4ccc(OC(C)=O)c(OC(C)=O)c4oc13)C=CC(C)(C)O2 [Compound 2a, 5,6-Diacetoxymacluraxanthone] | 16 (≈ 33.4 µM) | 32 (≈ 66.9 µM) | 24.5 ± 2.98 | 15.7 ± 1.17 | 16 (≈ 33.4 µM) | 10.1 ± 1.67 | 25.6 ± 4.77 | 8 (≈ 16.7 µM) | MIC [10]: 8 to 32 µg/mL (≈ 16.7 to 66.9 µM); IC50 [9]: 15.7 to 25.6 µM
11 | CN[C@H](CC(C)C)C(=O)N[C@H]1C(=O)N[C@@H](CC(N)=O)C(=O)N[C@H]2C(=O)N[C@H]3C(=O)N[C@H](C(=O)N[C@H](C(=O)O)c4cc(O)cc(O)c4-c4cc3ccc4O)[C@H](O)c3ccc(c(Cl)c3)Oc3cc2cc(c3O[C@@H]2O[C@H](CO)[C@@H](O)[C@H](O)[C@H]2O[C@H]2C[C@](C)(N)[C@H](O)[C@H](C)O2)Oc2ccc(cc2Cl)[C@H]1O [Vancomycin, reference compound] |  |  |  |  |  |  |  |  | MIC ([1]; ATCC11778, read-out: MIC B. cereus): 1 µg/mL (≈ 0.69 µM); MIC ([2]; ATCC6633, read-out: MIC B. subtilis): 2 µg/mL (≈ 1.38 µM); MIC (S. aureus ATCC 25923 [5]; ATCC25923, read-out: MIC S. aureus): 2 µg/mL (≈ 1.38 µM); MIC [8]: 2 µg/mL (≈ 1.38 µM)
12 | C=CC(C)(C)c1c2c(c(O)c3c(=O)c4ccc(OS(C)(=O)=O)c(OS(C)(=O)=O)c4oc13)C=CC(C)(C)O2 [Compound 2c, 5,6-Dimesyloxymacluraxanthone] | > 128 | > 128 | > 100 | 48.8 ± 4.73 | > 128 | > 100 | 84.3 ± 7.86 | > 128 | 
13 | CC1Oc2cc3oc4c(O)c(O)ccc4c(=O)c3c(O)c2C1(C)C (centres unmarked) [Compound 1, Toxyloxanthone C] |  |  |  |  |  |  |  |  | IC50 [12]: 13.6 ± 1.11 µM; MIC B. subtilis [13]: 128 µg/mL (≈ 390 µM); MIC MRSA [14]: 128 µg/mL (≈ 390 µM); MIC S. aureus (S. aureus ATCC 25923 [15]): 128 µg/mL (≈ 390 µM); IC50 [16]: 8.52 ± 0.64 µM; MIC B. cereus [17]: 128 µg/mL (≈ 390 µM); IC50 [18]: 21.8 ± 4.89 µM; IC50 [19]: 20.8 ± 2.57 µM
14 | CCOc1ccc2c(=O)c3c(O)c4c(cc3oc2c1OCC)OC(C)C4(C)C (centres unmarked) [Compound 1e, 5,6-Diethoxytoxyloxanthone C] | > 128 | > 128 | > 100 | > 100 | > 128 | > 100 | 50.4 ± 8.45 | > 128 | MIC against all bacterial strains tested [10]: no antibacterial activity
15 | C=CC(C)(C)c1c2c(c(O)c3c(=O)c4ccc(O)c(O)c4oc13)C=CC(C)(C)O2 [Compound 2, Macluraxanthone] |  |  |  |  |  |  |  |  | IC50 [12]: 1.59 ± 0.12 µM; MIC B. subtilis [13]: 64 µg/mL (≈ 162 µM); MIC MRSA [14]: 16 µg/mL (≈ 40.6 µM); MIC S. aureus (S. aureus ATCC 25923 [15]): >128 µg/mL; IC50 [16]: 4.29 ± 0.6 µM; MIC B. cereus [17]: 64 µg/mL (≈ 162 µM); IC50 [18]: 6.46 ± 0.98 µM; IC50 [19]: 5.26 ± 0.41 µM
16 | C=CC(C)(C)c1c2c(c(O)c3c(=O)c4ccc(OCC)c(OCC)c4oc13)C=CC(C)(C)O2 [Compound 2f, 5,6-Diethoxymacluraxanthone] | > 128 | > 128 | > 100 | > 100 | > 128 | > 100 | > 100 | > 128 | Cytotoxicity against three cancer cell lines (IC50 values, range over lines) [9]: no cytotoxicity
17 | CC(=O)Oc1ccc2c(=O)c3c(O)c4c(cc3oc2c1OC(C)=O)OC(C)C4(C)C (centres unmarked) [Compound 1a, 5,6-Diacetoxytoxyloxanthone C] | 4 (≈ 9.7 µM) | 4 (≈ 9.7 µM) | 21.1 ± 1.18 | 12.2 ± 1.08 | 4 (≈ 9.7 µM) | > 100 | 22.6 ± 2.02 | 4 (≈ 9.7 µM) | MIC [10]: 4 µg/mL (≈ 9.7 µM); fold improvement in antibacterial potency (MIC) compared to parent 1 [10]: 32 fold; IC50 [9]: 12.2 to 22.6 µM; Cytotoxicity (IC50, μM) Vero [11]: without showing cytotoxicity
